Consider 4 compounds from EP3441475A1, “NEUTRAL HEAT-SENSITIVE SERINE PROTEASE DERIVED FROM O. CORVINA” (priority 2017, dated 2019).

The target in this assay is T1, NHSSP (Onygena corvina, UniProt A0A0B4VM82).
T1 sequence (A0A0B4VM82 113-391): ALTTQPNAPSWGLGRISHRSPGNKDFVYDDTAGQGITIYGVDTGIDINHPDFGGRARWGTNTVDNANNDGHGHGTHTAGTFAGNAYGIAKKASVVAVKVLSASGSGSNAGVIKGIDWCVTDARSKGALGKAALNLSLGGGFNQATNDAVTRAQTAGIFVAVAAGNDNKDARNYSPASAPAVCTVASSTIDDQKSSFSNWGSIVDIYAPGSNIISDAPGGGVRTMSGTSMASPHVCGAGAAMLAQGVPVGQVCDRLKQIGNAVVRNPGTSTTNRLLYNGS
As to the kind of experiment: biochemical. Format: biochemical. On the procedure: The influence of different inhibitors on the enzymatic activity of NHSSP was determined by hydrolysis of azocasein in Britton-Robinson buffer pH 6.5 supplemented with appropriate substances. The reaction was stopped by the addition of TCA to the final concentration of 293 mM, centrifuged as described above, and the absorbance of supernatants was measured at 450 nm.
The enzymatic reaction was carried out at 40°C with a final inhibitor concentration of 1 mM.

Where [1] appears, read: final inhibitor concentration of 1 mM, 40°C, pH 6.5.
Setting [2] is: remaining NHSSP activity, final inhibitor concentration of 1 mM, 40°C, Britton-Robinson buffer pH 6.5, read-out: Activity (%).

Read-outs that look alike come from different tables or passages of the source.

For the compound `OCCS` [2-ß ME, ß-mercaptoethanol], under setting [1], the “inhibition of NHSSP protease activity (in words)” value (shortened to “inhibition”) is given as “did not significantly inhibit protease activity”. Also, the activity at 1000 µM under setting [2] was 99%.
In the case of `O=C(O)CCP(CCC(=O)O)CCC(=O)O` [TCEP], under setting [1], the “inhibition” value is recorded as “did not significantly inhibit protease activity”. Under setting [2], the activity at 1000 µM turned out to be 97%.
On to `O=C(O)CN(CCN(CC(=O)O)CC(=O)O)CC(=O)O` [EDTA, ethylenediamine tetraacetate], for which, for the setting “pH 6.5”, the activity at 1000 µM was 100% and the “inhibition” value is “did not significantly inhibit protease activity”.
Take `O=S(=O)(F)Cc1ccccc1` [PMSF, phenylmethylsulfonyl fluoride]: under setting [1], the “inhibition” value is listed as “identified as an inhibitor of NHSSP”. Moreover, where the note is “remaining NHSSP activity, final inhibitor concentration of 1 mM, 40°C, Britton-Robinson buffer pH 6.5”, the “Activity (%)” value stood at 40%.
